Results from BindingDB's records for patent US10633389 (Epizyme, Inc., 2020).

Target: T1, Histone-arginine methyltransferase CARM1 (Homo sapiens, UniProt Q86X55)
T1 sequence (Q86X55 whole entry): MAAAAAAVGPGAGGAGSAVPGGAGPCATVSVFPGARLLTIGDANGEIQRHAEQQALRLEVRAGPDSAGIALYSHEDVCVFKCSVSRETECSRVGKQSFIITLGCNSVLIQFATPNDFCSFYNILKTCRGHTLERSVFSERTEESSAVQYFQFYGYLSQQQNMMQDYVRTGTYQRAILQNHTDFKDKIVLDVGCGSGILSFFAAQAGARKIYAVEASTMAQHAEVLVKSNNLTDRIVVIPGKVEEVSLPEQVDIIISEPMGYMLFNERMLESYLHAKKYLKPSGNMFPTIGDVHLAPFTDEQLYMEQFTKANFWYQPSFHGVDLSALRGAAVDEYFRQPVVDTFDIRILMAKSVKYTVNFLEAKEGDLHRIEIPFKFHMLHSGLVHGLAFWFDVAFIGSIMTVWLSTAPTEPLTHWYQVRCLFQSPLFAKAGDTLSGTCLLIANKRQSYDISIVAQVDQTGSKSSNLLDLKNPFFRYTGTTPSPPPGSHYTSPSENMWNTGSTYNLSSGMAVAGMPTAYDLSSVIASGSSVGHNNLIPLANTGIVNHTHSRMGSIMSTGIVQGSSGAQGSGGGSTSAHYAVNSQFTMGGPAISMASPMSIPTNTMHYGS
Assay: Enzyme Assay
Experimental: The assays were all performed in a buffer consisting of 20 mM Bicine (pH=7.6), 1 mM TCEP, 0.005% BSG, and 0.002% Tween 20, prepared on the day of use. […] DMSO (1 ul) was added to Columns 11, 12, 23, 24, rows A-H for the maximum signal control and 1 ul of SAH, a known product and inhibitor of CARM1, was added to columns 11, 12, 23, 24, rows I-P for the minimum signal control. A cocktail (40 ul) containing the CARM1 enzyme was added by Multidrop Combi. The compounds were allowed to incubate with CARM1 for 30 min at room temperature, then a cocktail (10 ul) containing 3H-SAM and peptide was added to initiate the reaction (final volume=51 ul). […] The assays were stopped by the addition of non-radiolabeled SAM (10 ul) to a final concentration of 300 uM, which dilutes the 3H-SAM to a level where its incorporation into the peptide substrate is no longer detectable. 50 ul of the reaction in the 384-well polypropylene plate was then transferred to a 384-well Flashplate and the biotinylated peptides were allowed to bind to the streptavidin surface for at least 1 hour before being washed once with 0.1% Tween20 in a Biotek ELx405 plate washer.

Row | IC50 | Structure (SMILES)
1 | < 100 nM | CCN1CCC(Nc2nc(-c3cc(OC[C@H](O)CNC)ccc3Cl)nc(-c3c(C)noc3C)c2C)C(F)(F)C1 (stereo partly specified) [US10633389, Example 291-3]
2 | < 100 nM | CNCC(O)COc1cccc(-c2nc(N[C@@H]3CCOC3)c(C)c(-c3ccc4nccn4c3)n2)c1 (stereo partly specified) [US10633389, Example 445-1a]
3 | < 100 nM | CNCC(O)COc1cccc(-c2nc(N[C@@H]3CCOC3)c(C)c(N3CCC(n4c(C)nnc4C)CC3)n2)c1 (stereo partly specified) [US10633389, Example 390-1a]
4 | < 100 nM | CNC[C@@H](O)COc1ccc(Cl)c(-c2nc(NC3CCN(C4CC4)CC3(F)F)c(C)c(-c3c(C)noc3C)n2)c1 (stereo partly specified) [US10633389, Example 292-3]
5 | < 100 nM | CNCC(O)COc1cccc(-c2nc(N[C@@H]3CCOC3)c(C)c(N3CCC[C@H]4CN(Cc5ccccc5)C[C@H]43)n2)c1 (stereo partly specified) [US10633389, Example 378-1a]
6 | < 100 nM | CCS(=O)(=O)n1cc(-c2cc(N(C)C3CCOCC3)nc(-c3cccc(OCC(O)CNC)c3)n2)c2cncnc21 (stereo unspecified) [US10633389, Example 484-1a]
